In patent publication US8802597B2, “Herbicidal pyrimidines” (E I du Pont de Nemours and Company, priority 2003, dated 2014):

Key:
Format in all cases: in vivo
[1] = tested on: crabgrass (Digitaria sanguinalis); test: Test B pre/postemergence; conditions: for Crabgrass plant response rating: Postemergence; for Plant response rating, Crabgrass: Preemergence
Summary of the method: (§1)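 Following sowing, compounds in a surfactant-bearing non-phytotoxic solvent were applied preemergence; emerged plants 2 to 18 cm high got postemergence treatment concurrently. Evaluation: 13 to 15 days later, greenhouse, 0–100 visual scale.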

[2] = tested on: velvetleaf (Abutilon theophrasti); test: Test B pre/postemergence; conditions: for Velvetleaf plant response rating: Postemergence; for Plant response rating, Velvetleaf: Preemergence
Summary of the method: as §1

[3] = tested on: Surinam grass (Brachiaria decumbens); test: Test B pre/postemergence; conditions: for Surinam Grass plant response rating: Postemergence; for Plant response rating, Surinam Grass: Preemergence
Summary of the method: as §1

[4] = tested on: barnyardgrass (Echinochloa crus-galli); test: Test B pre/postemergence; conditions: for Barnyardgrass plant response rating: Postemergence; for Plant response rating, Barnyardgrass: Preemergence
Summary of the method: as §1

[5] = tested on: giant foxtail (Setaria faberii); test: Test B pre/postemergence; conditions: for Foxtail, Giant plant response rating: Postemergence; for Plant response rating, Foxtail, Giant: Preemergence
Summary of the method: as §1

[6] = tested on: pigweed (Amaranthus retroflexus); test: Test B pre/postemergence; conditions: for Pigweed plant response rating: Postemergence; for Plant response rating, Pigweed: Preemergence
Summary of the method: as §1

[7] = tested on: cocklebur (Xanthium strumarium); test: Test B pre/postemergence; conditions: for Cocklebur plant response rating: Postemergence; for Plant response rating, Cocklebur: Preemergence
Summary of the method: as §1

[8] = tested on: lambsquarters (Chenopodium album); test: Test B pre/postemergence; conditions: for Lambsquarters plant response rating: Postemergence; for Plant response rating, Lambsquarters: Preemergence
Summary of the method: as §1

[9] = tested on: corn (Zea mays); test: Test B pre/postemergence; conditions: for Corn plant response rating: Postemergence; for Plant response rating, Corn: Preemergence
Summary of the method: as §1

[10] = tested on: morningglory (Ipomoea coccinea); test: Test B pre/postemergence; conditions: for Morningglory plant response rating: Postemergence; for Plant response rating, Morningglory: Preemergence
Summary of the method: as §1

[11] = tested on: wheat (Triticum aestivum); test: Test B pre/postemergence; conditions: for Wheat plant response rating: Postemergence; for Plant response rating, Wheat: Preemergence
Summary of the method: as §1

[12] = tested on: blackgrass (Alopecurus myosuroides); test: Test B postemergence; conditions: scale 0 to 100 (0 no effect, 100 complete control)
Summary of the method: as §1

[13] = tested on: wild oat (Avena fatua); test: Test B postemergence; conditions: scale 0 to 100 (0 no effect, 100 complete control)
Summary of the method: as §1

[14] = tested on: barnyardgrass (Echinochloa crus-galli); test: Test B flooded paddy test; conditions: Flood, scale 0 to 100
Summary of the method: (§2)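 Visual injury scoring (0 = no effect, 100 = complete control) versus controls made 13 to 15 days after treatment in the greenhouse. Test species were grown in flooded paddy to the 2-leaf stage: rice, barnyardgrass, umbrella sedge, duck salad.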

[15] = tested on: umbrella sedge (Cyperus difformis); test: Test B flooded paddy test; conditions: Flood, scale 0 to 100
Summary of the method: as §2

[16] = tested on: rice (Oryza sativa); test: Test B flooded paddy test; conditions: Flood, scale 0 to 100
Summary of the method: as §2

[17] = tested on: duck salad (Heteranthera limosa); test: Test B flooded paddy test; conditions: Flood, scale 0 to 100
Summary of the method: as §2

[18] = 62 g ai/ha, scale 0 to 100 (0 no effect, 100 complete control)
[19] = 125 g ai/ha, scale 0 to 100 (0 no effect, 100 complete control)
[20] = 62 g ai/ha, scale 0 to 100, 0 no effect, 100 complete control

CCCOC(=O)c1nc(C2CC2)nc(N)c1Cl [Compound 75]
Crabgrass plant response rating [1, 18]: 70 | Crabgrass plant response rating [1, 19]: 80 | Plant response rating, Crabgrass [1, 20]: 80 | Plant response rating, Crabgrass [1, 19]: 90 | Velvetleaf plant response rating [2, 18]: 70 | Velvetleaf plant response rating [2, 19]: 100 | Plant response rating, Velvetleaf [2, 20]: 80 | Plant response rating, Velvetleaf [2, 19]: 100 | Surinam Grass plant response rating [3, 18]: 70 | Surinam Grass plant response rating [3, 19]: 80 | Plant response rating, Surinam Grass [3, 20]: 70 | Plant response rating, Surinam Grass [3, 19]: 80 | Barnyardgrass plant response rating [4, 18]: 80 | Barnyardgrass plant response rating [4, 19]: 90 | Plant response rating, Barnyardgrass [4, 20]: 60 | Plant response rating, Barnyardgrass [4, 19]: 80 | Foxtail, Giant plant response rating [5, 18]: 60 | Foxtail, Giant plant response rating [5, 19]: 80 | Plant response rating, Foxtail, Giant [5, 20]: 30 | Plant response rating, Foxtail, Giant [5, 19]: 90 | Pigweed plant response rating [6, 18]: 80 | Pigweed plant response rating [6, 19]: 90 | Plant response rating, Pigweed [6, 20]: 100 | Plant response rating, Pigweed [6, 19]: 100 | Cocklebur plant response rating [7, 18]: 70 | Cocklebur plant response rating [7, 19]: 100 | Plant response rating, Cocklebur [7, 20]: 90 | Plant response rating, Cocklebur [7, 19]: 90 | Lambsquarters plant response rating [8, 18]: 90 | Lambsquarters plant response rating [8, 19]: 100 | Plant response rating, Lambsquarters [8, 20]: 100 | Plant response rating, Lambsquarters [8, 19]: 100 | Corn plant response rating [9, 18]: 60 | Corn plant response rating [9, 19]: 70 | Plant response rating, Corn [9, 20]: 50 | Plant response rating, Corn [9, 19]: 80 | Morningglory plant response rating [10, 18]: 100 | Morningglory plant response rating [10, 19]: 100 | Plant response rating, Morningglory [10, 20]: 80 | Plant response rating, Morningglory [10, 19]: 100 | Wheat plant response rating [11, 18]: 50 | Wheat plant response rating [11, 19]: 70 | Plant response rating, Wheat [11, 20]: 30 | Plant response rating, Wheat [11, 19]: 70 | Blackgrass plant response rating ([12]; 62 g ai/ha): 50 | Blackgrass plant response rating ([12]; 125 g ai/ha): 60 | Oat, Wild plant response rating ([13]; 62 g ai/ha): 50 | Oat, Wild plant response rating ([13]; 125 g ai/ha): 60 | Plant response rating, Barnyardgrass ([14]; 125 g ai/ha): 0 | Plant response rating, Barnyardgrass ([14]; 500 g ai/ha): 70 | Plant response rating, Sedge, Umbrella ([15]; 125 g ai/ha): 0 | Plant response rating, Sedge, Umbrella ([15]; 500 g ai/ha): 10 | Plant response rating, Rice ([16]; 125 g ai/ha): 0 | Plant response rating, Rice ([16]; 500 g ai/ha): 70 | Plant response rating, Ducksalad ([17]; 125 g ai/ha): 0 | Plant response rating, Ducksalad ([17]; 500 g ai/ha): 70

CCCCOC(=O)c1nc(C2CC2)nc(N)c1Cl [Compound 76]
Crabgrass plant response rating [1, 18]: 70 | Crabgrass plant response rating [1, 19]: 90 | Plant response rating, Crabgrass [1, 20]: 80 | Plant response rating, Crabgrass [1, 19]: 90 | Velvetleaf plant response rating [2, 18]: 90 | Velvetleaf plant response rating [2, 19]: 90 | Plant response rating, Velvetleaf [2, 20]: 80 | Plant response rating, Velvetleaf [2, 19]: 90 | Surinam Grass plant response rating [3, 18]: 70 | Surinam Grass plant response rating [3, 19]: 80 | Plant response rating, Surinam Grass [3, 20]: 70 | Plant response rating, Surinam Grass [3, 19]: 90 | Barnyardgrass plant response rating [4, 18]: 90 | Barnyardgrass plant response rating [4, 19]: 90 | Plant response rating, Barnyardgrass [4, 20]: 40 | Plant response rating, Barnyardgrass [4, 19]: 90 | Foxtail, Giant plant response rating [5, 18]: 60 | Foxtail, Giant plant response rating [5, 19]: 80 | Plant response rating, Foxtail, Giant [5, 20]: 40 | Plant response rating, Foxtail, Giant [5, 19]: 80 | Pigweed plant response rating [6, 18]: 90 | Pigweed plant response rating [6, 19]: 100 | Plant response rating, Pigweed [6, 20]: 100 | Plant response rating, Pigweed [6, 19]: 100 | Cocklebur plant response rating [7, 18]: 60 | Cocklebur plant response rating [7, 19]: 90 | Plant response rating, Cocklebur [7, 20]: 80 | Plant response rating, Cocklebur [7, 19]: 100 | Lambsquarters plant response rating [8, 18]: 100 | Lambsquarters plant response rating [8, 19]: 100 | Plant response rating, Lambsquarters [8, 20]: 90 | Plant response rating, Lambsquarters [8, 19]: 100 | Corn plant response rating [9, 18]: 50 | Corn plant response rating [9, 19]: 70 | Plant response rating, Corn [9, 20]: 70 | Plant response rating, Corn [9, 19]: 80 | Morningglory plant response rating [10, 18]: 100 | Morningglory plant response rating [10, 19]: 100 | Plant response rating, Morningglory [10, 20]: 100 | Plant response rating, Morningglory [10, 19]: 100 | Wheat plant response rating [11, 18]: 60 | Wheat plant response rating [11, 19]: 70 | Plant response rating, Wheat [11, 20]: 30 | Plant response rating, Wheat [11, 19]: 70 | Blackgrass plant response rating ([12]; 62 g ai/ha): 50 | Blackgrass plant response rating ([12]; 125 g ai/ha): 60 | Oat, Wild plant response rating ([13]; 62 g ai/ha): 50 | Oat, Wild plant response rating ([13]; 125 g ai/ha): 60 | Plant response rating, Barnyardgrass ([14]; 125 g ai/ha): 0 | Plant response rating, Barnyardgrass ([14]; 500 g ai/ha): 70 | Plant response rating, Sedge, Umbrella ([15]; 125 g ai/ha): 30 | Plant response rating, Sedge, Umbrella ([15]; 500 g ai/ha): 70 | Plant response rating, Rice ([16]; 125 g ai/ha): 0 | Plant response rating, Rice ([16]; 500 g ai/ha): 50 | Plant response rating, Ducksalad ([17]; 125 g ai/ha): 0 | Plant response rating, Ducksalad ([17]; 500 g ai/ha): 70
